Data published in patent publication EP1477174B1, “Radioactive arsenic-containing compounds and their uses in the treatment of tumors” (TTY Biopharm Company Limited, priority 2003, dated 2004).
Values joined by “and” are separate entries in the source; they are usually repeats but may differ in a detail not shown here. Equal values may be shown once.

What was measured:
[1] = tested on: relapsed acute promyelocytic leukemia; conditions: cited from earlier work
N1-S1 rat hepatoma cells [2] = assay: Therapeutic effect assessment: liver tumor direct injection, rats with liver tumors; format: in vivo, Spawn-Dawley rats; set-up: key to Response: Increase in Size of tumor (In%) is classified as "Poor Response"; decrease in size of tumorwithin 0%∼40% is classified as "MildResponse"; decrease in size of tumor to 50% or more or disappearance of tumor is classified as "Good Response."; conditions: for Response / Survival time: 0.45 mg/kg direct into liver tumor, single animals
Description: (§1) When cultured to 1.5x10^6 cell/ml, 4x10^6 cell/0.06ml of N1-S1 cells were sampled and then implanted into Spawn-Dawley male rats (5-week-old, 150g) between the liver and liver capsule by surgery, and the wounds were closed by sutures. Rearing of the rats was continued for ten days, and ultrasonic scanning was used to detect any growth of liver tumor and tumor size. After scanning, animals that had developed liver tumors were used to conduct the experiments of tumor growth inhibition, and euthanasia was practiced on the rest of the rats.
The rats with liver tumors were subjected to surgery. After the locations of the liver tumors were found, the tumors were directly injected with normal saline, an injection containing arsenic trioxide without neutron irradiation treatment (concentration: 1 mg/ml; animal injection dosage: 0.45 mg/kg), and the injection prepared in Example 1 which contained radioactive arsenic trioxide having subjected to neutron irradiation treatment (radiation activity range: 2.77-3.25 mCi/ml; concentration: 1 mg/ml of concentration; and animal injection dosage: 0.45 mg/kg), respectively, once every week, twice in total.
(§2) Before injection, the size of the liver tumors was examined by ultrasonic scanning. Ultrasonic scanning was conducted in the first week, the second week, and the fifth week, respectively, after start of the injection to observe the change in size of the tumor. Finally, the rats were sacrificed for observing whether there was metastasis.

N1-S1 rat hepatoma cells [3] = assay: Therapeutic effect assessment: hepatic artery single injection, rats with liver tumors; format: in vivo, Spawn-Dawley rats; conditions: for Therapeutic effect (in words): hepatic artery single injection
Description: as §1
The blood vessels of the hepatic artery were dissected from the hepatic tissue of the rats by surgery, and normal saline, an injection solution containing arsenic trioxide without neutron irradiation treatment (concentration: 1 mg/ml; and animal injection dosage: 0.45 mg/kg), and the injection solution prepared in Example 1 which contained radioactive arsenic trioxide having subjected to neutron irradiation treatment (radioactivity range: 2.77-3.25 mCi/ml; concentration: 1 mg/ml; and animal injection dosage: 0.45 mg/kg dose), were injected respectively via the hepatic artery in single injections.
as §2

N1-S1 rat hepatoma cells [4] = assay: Therapeutic effect assessment: continuous tail vein injection, rats with liver tumors; format: in vivo, Spawn-Dawley rats; set-up: key to Response: Increase in size of tumor (In%) is classified as "Poor Response"; decrease in size of tumorwithin 0%∼40% is classified as "MildResponse"; decrease in size of tumor to 50% or more or disappearance of tumor is classified as "Good Response."; conditions: for Response / Survival time: 0.45 mg/kg tail vein, continued for two weeks, single animals; for Effect on the inhibition of tumor growth (in words): continuous tail vein injection; for Survival of the rats (in words): tail vein injection, week 8
Description: as §1
The rats with liver tumors were given normal saline, an injection solution containing arsenic trioxide without neutron irradiation treatment (concentration: 1 mg/ml; animal injection dosage: 0.45 mg/kg), and the injection solution prepared in Example 1 which contained radioactive arsenic trioxide having subjected to neutron irradiation treatment(radioactivity range: 2.77-3.25 mCi/ml; concentration: 1 mg/ml; and animal injection dosage: 0.45 mg/kg), respectively, via tail vein injection, and the injection was continued for two weeks.
as §2, with “the injection so as to observe” for “the injection to observe”

liver tumor = conditions: 2 mg/kg for 10 consecutive days (Lin et al. 1999); cited from earlier work
[5] = tested on: human cervical cancer cells; conditions: in vitro and in vivo, cervical cancer (Yong-Jin Chun et al. 2002); cited from earlier work
[6] = Biodistribution test and radiation absorption dose (MIRD method) in rats with liver tumors; format: in vivo; conditions: for Radiation absorption dose, Intestine / Radiation absorption dose, Kidney / Radiation absorption dose, Liver / Radiation absorption dose, Lung / Radiation absorption dose, Muscle / Radiation absorption dose, Spleen / Radiation absorption dose, Tumor: 0.45 mg/kg
Description: The hepatic artery was dissected from the hepatic tissue of the rats by surgery. A PE-10 tube was introduced into the hepatic artery, and the test solution containing neutron-irradiated arsenic trioxide as prepared in Example 1 was injected into the hepatic artery. The PE-10 tube was removed after injection, and a surgical thread was used to bind and fix the blood vessels, followed by suturing of the wound.
The test injection solution containing neutron-irradiated arsenic trioxide as prepared in Example 1 was injected into the tail vein using a syringe with needle no. 25.
A fixed amount of radioactive arsenic trioxide (radioactivity range: 2.77-3.25 mCi/ml, concentration: 1 mg/ml, animal injection dose: 0.45 mg/kg) prepared in Example 1 was injected into the rats with liver tumors through the hepatic artery and tail vein, respectively.
The rats were sacrificed by taking a large amount of blood from the heart at hours 2, 4, 16, 24 and 48, respectively, after injection, and the blood, hearts, lungs, livers, spleens, kidneys, intestines, bladders, muscles, and tumors were removed. These tissues or organs were placed in respective tubes, and their irradiation intensity was measured by a gamma counter (Wallac 1470 WIZARD) . The content percentage of arsenic trioxide per each gram of the tissue or organ was calculated using standard curve regression. There were two or three experimented rats in each experimental group.
Radioactive arsenic trioxide was injected respectively into the tail vein and hepatic artery of the rats by I.V. and I.H. The dosage was calculated using MIRD method, and the residence time in each of the organs and the tumors was calculated using Excel software. Finally, the radiation absorption dose in each of the organs or tissues and the tumors was calculated using MIROSE 3 software. Table 3. Radiation absorption dose in each of the organs or tissues and the tumors after injection of radioactive arsenic trioxide into the animals through the tail vein and hepatic artery, respectively, by I.V. and I.H.

[7] = 0.45 mg/kg hepatic artery single injection, single animals

Compound: S1[As]2S[As]3S[As]2S[As]13 [tetraarsenic tetraslfide]
- complete remission rates ([1]; other arsenic-containing substances (Wang Z.Y. 2001)): 84.9%

Compound: arsenic trioxide [reference compound]
- Response (N1-S1 rat hepatoma cells [2]): Poor and Good (decrease in size of tumor to 50% or more or disappearance of tumor is classified as "Good Response.") and Mild (decrease in size of tumorwithin 0%∼40% is classified as "MildResponse")
- Survival time (N1-S1 rat hepatoma cells [2]): >30 days
- Response (N1-S1 rat hepatoma cells [3]; [7]): Mild (decrease in size of tumorwithin 0%∼40% is classified as "MildResponse") (2×) and Poor (2×)
- Survival time (N1-S1 rat hepatoma cells [3]; [7]): >42 day (2×) and 36 day and 39 day
- Therapeutic effect (in words) (N1-S1 rat hepatoma cells [3]): not satisfactory
- Response (N1-S1 rat hepatoma cells [4]): Poor (3×) and Mild (decrease in size of tumorwithin 0%∼40% is classified as "MildResponse") (2×)
- Survival time (N1-S1 rat hepatoma cells [4]): 14 day (2×) and 42 day and 7 day and 40 day
- Effect on the inhibition of tumor growth (in words) (N1-S1 rat hepatoma cells [4]): not significant
- Survival of the rats (in words) (N1-S1 rat hepatoma cells [4]): still alive in week 8
- life of the mice extended to (liver tumor): 127.2%
- Effect of combination with other drugs (in words) ([1]; combination with other drugs (such as GM-CSF), relapsed or ATRA resistant acute promyelocytic leukemia (Muto A et al. 2001)): synergistic therapeutic effect
- complete remission (CR) rate ([1]; intravenously at a dose of 10 mg/d, relapsed acute promyelocytic leukemia (Shen Z.X. et al. 1997)): 90%
- complete remission rate ([1]; low-dose, intravenously, daily dose of 0.08 mg/kg for 28 days (Shen Y et al. 2001)): 80%
- Effect of combined treatment with ionizing radiation (in words) [5]: synergistic effect

Compound: radioactive arsenic trioxide
- Response (N1-S1 rat hepatoma cells [2]): Good (decrease in size of tumor to 50% or more or disappearance of tumor is classified as "Good Response.")
- Survival time (N1-S1 rat hepatoma cells [2]): >30 days
- Change of tumor size (in words) (N1-S1 rat hepatoma cells [2]; direct injection into the liver tumors, 4 weeks): the tumors in all of the animals shrank
- Response (N1-S1 rat hepatoma cells [3]; [7]): Good (decrease in size of tumor to 50% or more or disappearance of tumor is classified as "Good Response.")
- Survival time (N1-S1 rat hepatoma cells [3]; [7]): >42 days
- Tumor size After injection Week 2 (N1-S1 rat hepatoma cells [3]; [7]): Disappeared
- Tumor size After injection Week 5 (N1-S1 rat hepatoma cells [3]; [7]): Disappeared
- Therapeutic effect (in words) (N1-S1 rat hepatoma cells [3]): complete disappearance of the tumors in some of the animals 2 weeks after injection
- Response (N1-S1 rat hepatoma cells [4]): Good (decrease in size of tumor to 50% or more or disappearance of tumor is classified as "Good Response.")
- Survival time (N1-S1 rat hepatoma cells [4]): >56 days
- Effect on the inhibition of tumor growth (in words) (N1-S1 rat hepatoma cells [4]): most noticeable
- Survival of the rats (in words) (N1-S1 rat hepatoma cells [4]): all alive in week 8
- Radiation absorption dose, Intestine ([6]; IH (hepatic artery)): 0.23 mGy/MBq
- Radiation absorption dose, Kidney ([6]; IH (hepatic artery)): 0.28 mGy/MBq
- Radiation absorption dose, Liver ([6]; IH (hepatic artery)): 0.21 mGy/MBq
- Radiation absorption dose, Lung ([6]; IH (hepatic artery)): 0.56 mGy/MBq
- Radiation absorption dose, Muscle ([6]; IH (hepatic artery)): 0.12 mGy/MBq
- Radiation absorption dose, Spleen ([6]; IH (hepatic artery)): 0.95 mGy/MBq
- Radiation absorption dose, Tumor ([6]; IH (hepatic artery)): 21 mGy/MBq
- Radiation absorption dose, Intestine ([6]; IV (tail vein)): 0.16 mGy/MBq
- Radiation absorption dose, Kidney ([6]; IV (tail vein)): 0.25 mGy/MBq
- Radiation absorption dose, Liver ([6]; IV (tail vein)): 0.13 mGy/MBq
- Radiation absorption dose, Lung ([6]; IV (tail vein)): 0.47 mGy/MBq
- Radiation absorption dose, Muscle ([6]; IV (tail vein)): 0.06 mGy/MBq
- Radiation absorption dose, Spleen ([6]; IV (tail vein)): 0.76 mGy/MBq
- Radiation absorption dose, Tumor ([6]; IV (tail vein)): 4.26 mGy/MBq
- Contents of the radioactive arsenic trioxide in the heart, the lung, and the spleen ([6]; hepatic artery and tail vein injection, hours 2-48 (Figure 3)): 1-3 % ID/g
